Test results reported in patent publication US20250368628A1, “METHODS AND COMPOUNDS FOR MODULATING INHERITED GENETIC DISEASES” (Design Therapeutics, Inc., priority 2022, published 2025).

The molecules below were run on Myotonic Dystrophy 1 affected patient fibroblasts (Coriel GM04602; 1600 CTG repeats) (assay: DM1 foci reduction assay (EC50 assay; CAG10-Cy3 FISH, foci per nucleus)). Conditions: Homo sapiens, Fibroblast; DM1 patient fibroblasts, 48 h treatment, foci per nucleus; read-out: DM1 EC50, 48 h.
Format: cell-based
Protocol: DM1 Foci Reduction Assay Methods
Myotonic Dystrophy 1 affected patient fibroblasts (Coriel GM04602; 1600 CTG repeats) and wild type fibroblasts (Coriell GM07492; control line) were cultured separately in Gibco DMEM (1×)+4.5 g/L D-Glucose+L-Glutamine+[…] Sodium Pyruvate, supplemented with 10% FBS and 1× Pen/Strep. Cells were maintained in an incubator at 37° C. and 5% CO2 with media refreshed every 48-72 hours.
At 90-95% confluency, both cell lines were harvested using Trypl-E then pelleted at 500×g for 5 minutes and were resuspended in fresh media. DM1 fibroblasts were seeded in Agilent 96 well black plates at a density of 5,000 cells/well in 200 μL media; and 8 wells were reserved for control fibroblasts. Plates were returned to incubator for 24 hours at 37° C. and 5% CO2.
Compounds were diluted from 10 mM stock to 1 mM in DMSO and then diluted once more to 6 μM (2× concentration) in media. Media was removed from all plates and cells were replenished with 100 μL media. Cells were treated in 8-point dose response, 1:3 fold dilution, 3 μM top dose via addition of 100 μL of 6 μM (2× concentration) compound to the 100 μL media with cells. Plates were returned to incubator for 48 hours at 37° C. and 5% CO2.
Following treatment, compounds were removed, and plates were washed with PBS, then cells were fixed in 75 μL 4% PFA solution for 20 minutes at room temperature. Plates were washed twice with PBS and twice with cold 70% ethanol before permeabilization with 250 μL cold 70% ethanol for 24-72 hours at −20° C.
After permeabilization, plates were washed once with a 30% formamide and 2×SSC buffer and rehydrated in that buffer for 15 minutes at room temperature. Cells were incubated overnight at 37° C. in 75 μL of a hybridization solution containing 30% formamide, 2×SSC, 25 mg/mL dextran sulfate, 2.5 mg/mL BSA, 0.2 μg/mL Herring sperm DNA, 2 mM vanadyl-ribonucleoside complex, and 5 nM CAG10-Cy3 probe.
Plates were washed once with 30% formamide in 2×SSC buffer, then twice with the buffer for 30 minutes at 37° C., 300 RPM in an incubating plate shaker. Cells were stained with 75 μL of 2.5 μg/mL DAPI in PBS for 5 minutes at room temperature. Plates were then washed twice with PBS and stored in 250 μL PBS. Plates were sealed with adhesive foil and wiped down with 70% ethanol.
Cells were imaged on a Cytation5 with a 20× objective sampling from 4 areas of each well. Nuclei were captured under DAPI channel and foci under RFP channel. Plates were analyzed on an average foci per nucleus per well basis.
Molecule CCN(CC)CCCC[C@@H](NC(C)=O)C(=O)NCCNC(=O)CCNC(=O)c1nc(NC(=O)CCNC(=O)c2cc(NC(=O)c3nc(NC(=O)CCCNC(=O)c4cc(NC(=O)c5nc(NC(=O)CCNC(=O)c6cc(NC(C)c7nccn7C)cn6C)cn5C)cn4C)cn3C)cn2C)cn1C (stereo partly drawn) [Compound B-98] has an EC50 of over 1 µM.
CCN(CC)CCCC[C@@H](NC(C)=O)C(=O)Nc1ccc(OCCOCCOCCOCCOCCOCCOCCNC(=O)CCNC(=O)c2nc(NC(=O)c3cc(NC(=O)CCNC(=O)c4nc(NC(=O)CCCNC(=O)c5cc(NC(=O)c6nc(NC(=O)CCNC(=O)c7cc(NC(=O)c8nccn8C)cn7C)cn6C)cn5C)cn4C)cn3C)cn2C)cc1 [Compound B-145] gave an EC50 of 0.5 to 1 µM.
With CCN(CC)CCCC[C@@H](NC(C)=O)C(=O)NCCOCCOCCNC(=O)CCNC(=O)c1nc(NC(=O)c2cc(NC(=O)CCNC(=O)c3nc(NC(=O)CCCNC(=O)c4cc(NC(=O)c5nc(NC(=O)CCNC(=O)c6cc(NC(=O)c7nccn7C)cn6C)cn5C)cn4C)cn3C)cn2C)cn1C [Compound B-102] the EC50 was 0.5 to 1 µM.
CCCNC(=O)CCNC(=O)c1nc(NC(=O)c2cc(NC(=O)CCNC(=O)c3nc(NC(=O)CCCNC(=O)c4cc(NC(=O)c5nc(NC(=O)CCNC(=O)c6cc(NC(=O)c7nccn7C)cn6C)cn5C)cn4CCCCCCNC(=O)CCOCCOCCOCCOCCOCCOC)cn3C)cn2C)cn1C [Compound B-238] was tested, and the EC50 was 0.1 to 0.5 µM.
Cn1cc(NC(=O)c2nc(NC(=O)CCNC(=O)c3cc(NC(=O)c4nccn4C)cn3C)cn2C)cc1C(=O)NCCCC(=O)Nc1cn(C)c(C(=O)NCCC(=O)Nc2cc(C(=O)Nc3cn(C)c(C(=O)NCCC(=O)NCCOCCOCCOc4ccc(NC(=O)OCc5ccccc5)cc4)n3)n(C)c2)n1 [Compound B-13] gave an EC50 of over 1 µM.
With COCCOCCOCCOCCN(CCOCCOCCOCCOC)C(=O)CCCCn1cc(NC(=O)CCNC(=O)c2nc(NC(=O)CCCNC(=O)c3cc(NC(=O)c4nc(NC(=O)CCNC(=O)c5cc(NC(=O)c6nccn6C)cn5C)cn4C)cn3C)cn2C)cc1C(=O)Nc1cn(C)c(C(=O)NCCC(=O)N2CCC(N3CCNCC3)CC2)n1 [Compound B-160] the EC50 was over 1 µM.
Molecule COC(=O)c1cncc(OCCOCCOCCNC(=O)c2nc(NC(=O)c3cc(NC(=O)CCNC(=O)c4nc(NC(=O)CCCNC(=O)c5cc(NC(=O)c6nc(NC(=O)CCNC(=O)c7cc(NC(=O)c8nccn8C)cn7C)cn6C)cn5C)cn4C)cn3C)cn2C)c1 [Compound B-342] has an EC50 of 0.1 to 0.5 µM.
Cn1cc(NC(=O)c2nc(NC(=O)CCNC(=O)c3cc(NC(=O)c4nccn4C)cn3C)cn2C)cc1C(=O)NCCCC(=O)Nc1cn(C)c(C(=O)NCCC(=O)Nc2cc(C(=O)NCCOCCOCCOCCN3CCC(C#CC#CC4CCN(C(=O)OC(C)(C)C)CC4)CC3)n(C)c2)n1 [Compound B-210] was tested, and the EC50 was over 1 µM.
In the case of CN(C)CCCNC(=O)c1cc(NC(=O)CCNC(=O)c2nc(NC(=O)CCCNC(=O)c3cc(NC(=O)c4nc(NC(=O)CCNC(=O)c5cc(NC(=O)c6nccn6C)cn5C)cn4C)cn3CCCCCCN=[N+]=[N-])cn2C)cn1C [Compound B-254], the EC50 is reported as over 1 µM.
Molecule CCCNC(=O)CCNC(=O)c1nc(NC(=O)c2cc(NC(=O)CCNC(=O)c3nc(NC(=O)CCCNC(=O)c4cc(NC(=O)c5nc(NC(=O)c6cc(NC(=O)CCNC(=O)c7nccn7C)cn6C)cn5C)cn4C)cn3C)cn2C)cn1C [Compound B-83] has an EC50 of over 1 µM.
With CN1CCC(C#CC#CCNC(=O)CCNC(=O)c2nc(NC(=O)c3cc(NC(=O)CCNC(=O)c4nc(NC(=O)CCCNC(=O)c5cc(NC(=O)c6nc(NC(=O)CCNC(=O)c7cc(NC(=O)c8nccn8C)cn7C)cn6C)cn5C)cn4C)cn3C)cn2C)CC1 [Compound B-138] the EC50 was over 1 µM.
In the case of CN1CCN(CC2CCN(C(=O)CCNC(=O)c3nc(NC(=O)c4cc(NC(=O)CCNC(=O)c5nc(NC(=O)CCCNC(=O)c6cc(NC(=O)c7nc(NC(=O)CCNC(=O)c8cc(NC(=O)c9nccn9C)cn8C)cn7C)cn6C)cn5C)cn4C)cn3C)CC2)CC1 [Compound B-129], the EC50 is reported as 0.1 to 0.5 µM.
With COCCOCCOCCOCCOCCOCCNC(=O)c1nc(NC(=O)c2cc(NC(=O)CCNC(=O)c3nc(NC(=O)CCCNC(=O)c4cc(NC(=O)c5nc(NC(=O)CCNC(=O)c6cc(NC(=O)c7nccn7C)cn6C)cn5C)cn4C)cn3C)cn2C)cn1C [Compound B-204] the EC50 was 0.5 to 1 µM.
Cn1cc(NC(=O)c2nc(NC(=O)CCNC(=O)c3cc(NC(=O)c4nccn4C)cn3C)cn2C)cc1C(=O)NCCCC(=O)Nc1cn(C)c(C(=O)NCCC(=O)Nc2cc(C(=O)Nc3cn(C)c(C(=O)N4CCC(N5CCNCC5)CC4)n3)n(C)c2)n1 [Compound B-106] was tested, and the EC50 was over 1 µM.
CCN(CC)CCCC[C@H](NC(=O)c1cccc(C(=O)O)c1)C(=O)NCCOCCOCCOCCNC(=O)c1nc(NC(=O)c2cc(NC(=O)CCNC(=O)c3nc(NC(=O)CCCNC(=O)c4cc(NC(=O)c5nc(NC(=O)CCNC(=O)c6cc(NC(=O)c7nccn7C)cn6C)cn5C)cn4C)cn3C)cn2C)cn1C [Compound B-221] showed an EC50 of over 1 µM.
For CCOC(=O)CCNC(=O)c1nc(NC(=O)c2cc(NC(=O)CCNC(=O)c3nc(NC(=O)CCCNC(=O)c4cc(NC(=O)c5nc(NC(=O)CCNC(=O)c6cc(NC(=O)c7nccn7C)cn6C)cn5C)cn4C)cn3C)cn2C)cn1C [Compound B-65], the EC50 was 0.1 to 0.5 µM.
Cn1cc(NC(=O)c2nc(NC(=O)CCNC(=O)c3cc(NC(=O)c4nccn4C)cn3C)cn2C)cc1C(=O)NCCCC(=O)Nc1cn(C)c(C(=O)NCCC(=O)Nc2cc(C(=O)Nc3cn(C)c(C(=O)NCCC(=O)N4CCC(CC5CC[N+](C)(C)CC5)CC4)n3)n(C)c2)n1 [Compound B-262] was tested, and the EC50 was over 1 µM.
Work on Cn1cc(NC(=O)c2nc(NC(=O)CCNC(=O)c3cc(NC(=O)c4nccn4C)cn3C)cn2C)cc1C(=O)NCCCC(=O)Nc1cn(C)c(C(=O)NCCC(=O)Nc2cc(C(=O)Nc3cn(C)c(C(=O)NCCC(=O)NCC#CC#CC4CCN(C(=O)OC(C)(C)C)CC4)n3)n(C)c2)n1 [Compound B-194] yielded an EC50 of over 1 µM.
Molecule CCCCCCCCCCNC(=O)CCNC(=O)c1nc(NC(=O)c2cc(NC(=O)CCNC(=O)c3nc(NC(=O)CCCNC(=O)c4cc(NC(=O)c5nc(NC(=O)CCNC(=O)c6cc(NC(=O)c7nccn7C)cn6C)cn5C)cn4C)cn3C)cn2C)cn1C [Compound B-40] has an EC50 of under 0.1 µM.
CCN(CC)CCCC[C@H](NC(=O)c1cccc(C(=O)O)c1)C(=O)NCCOCCOCCOCCNC(=O)CCNC(=O)c1nc(NC(=O)c2cc(NC(=O)CCNC(=O)c3nc(NC(=O)CCCNC(=O)c4cc(NC(=O)c5nc(NC(=O)CCNC(=O)c6cc(NC(=O)c7nccn7C)cn6C)cn5C)cn4C)cn3C)cn2C)cn1C [Compound B-223] gave an EC50 of over 1 µM.
Cn1cc(NC(=O)c2nc(NC(=O)CCNC(=O)c3cc(NC(=O)c4nccn4C)cn3C)cn2C)cc1C(=O)NCCCC(=O)Nc1cn(C)c(C(=O)NCCC(=O)Nc2cc(C(=O)Nc3cn(C)c(C(=O)NCCOCCOCCOc4cccc(C(=O)O)c4)n3)n(C)c2)n1 [Compound B-214] showed an EC50 of 0.5 to 1 µM.
Cn1cc(NC(=O)c2nc(NC(=O)CCNC(=O)c3cc(NC(=O)c4nccn4C)cn3C)cn2C)cc1C(=O)NCCCC(=O)Nc1cn(C)c(C(=O)NCCC(=O)Nc2cc(C(=O)Nc3cn(C)c(C(=O)NCCC(=O)N4CCC(C#CC#CC5CCN(CCCNC(=O)c6cccc(C(=O)O)c6)CC5)CC4)n3)n(C)c2)n1 [Compound B-225] gave an EC50 of 0.1 to 0.5 µM.
Cn1cc(NC(=O)c2nc(NC(=O)CCNC(=O)c3cc(NC(=O)c4nccn4C)cn3C)cn2C)cc1C(=O)NCCCC(=O)Nc1cn(C)c(C(=O)NCCC(=O)Nc2cc(C(=O)Nc3cn(C)c(C(=O)NCCC(=O)NCC#CC#CC4CCN(C(=O)c5ccc(C(C)(C)C)cc5)CC4)n3)n(C)c2)n1 [Compound B-188] was tested, and the EC50 was over 1 µM.
CN(C)CCCNC(=O)c1cc(NC(=O)CCNC(=O)c2nc(NC(=O)CCCNC(=O)c3cc(NC(=O)c4nc(NC(=O)CCNC(=O)c5cc(NC(=O)c6nccn6C)cn5C)cn4C)cn3C)cn2C)cn1C [Compound B-212] showed an EC50 of over 1 µM.
With CCN(CC)CCCC[C@H](NC(=O)c1cccc(C(=O)O)c1)C(=O)NCCOCCOCCOCCOCCOCCNC(=O)c1nc(NC(=O)c2cc(NC(=O)CCNC(=O)c3nc(NC(=O)CCCNC(=O)c4cc(NC(=O)c5nc(NC(=O)CCNC(=O)c6cc(NC(=O)c7nccn7C)cn6C)cn5C)cn4C)cn3C)cn2C)cn1C [Compound B-220] the EC50 was over 1 µM.
In the case of Cn1cc(NC(=O)c2nc(NC(=O)CCNC(=O)c3cc(NC(=O)c4nccn4C)cn3C)cn2C)cc1C(=O)NCCCC(=O)Nc1cn(C)c(C(=O)NCCC(=O)Nc2cc(C(=O)Nc3cn(C)c(C(=O)NCCCCCCCNC(=O)c4cccc(C(=O)O)c4)n3)n(C)c2)n1 [Compound B-213], the EC50 is reported as over 1 µM.

Same assay, conditions: Homo sapiens, Fibroblast; DM1 patient fibroblasts, foci per nucleus, 48 h treatment; read-out: DM1 EC50, 48 h
Molecule CN(C)CCCCNC(=O)c1nc(NC(=O)c2cc(NC(=O)CCNC(=O)c3nc(NC(=O)CC4(CNC(=O)c5cc(NC(=O)c6nc(NC(=O)CCNC(=O)c7cc(NC(=O)c8nccn8C)cn7C)cn6C)cn5C)CC4)cn3C)cn2C)cn1C [Compound B-434] has an EC50 of under 0.1 µM.
